Reference: patent US9247741B2, “Use of macrocyclic picolinamides as fungicides” (DOW AGROSCIENCES LLC, priority 2013, dated 2016)
Like-named read-outs stand apart in the source and are kept apart here.

Columns and labels:
[1] = tested on: Mycosphaerella graminicola; Anamorph: Septoria tritici; test: Leaf blotch of wheat (SEPTTR) disease control on wheat seedlings; type: in vivo; details: Zymoseptoria tritici; for pest or weed control at 121.5 g/ha: 121.5 g/H (low volume track spray)
Experimental: Evaluation of Fungicidal Activity: Leaf Blotch of Wheat (Mycosphaerella graminicola; Anamorph: Septoria tritici; Bayer Code […]) Technical grades of materials were dissolved in acetone, which were then mixed with nine volumes of water containing 110 ppm Triton X-100. The fungicide solutions were applied onto wheat seedlings using an automated booth sprayer to run-off. All sprayed plants were allowed to air dry prior to further handling. All fungicides were evaluated using the aforementioned method for their activity vs. all target diseases. Wheat leaf blotch and brown rust activity were also evaluated using track spray applications, in which case the fungicides were formulated as EC formulations, containing 0.1% Trycol 5941 in the spray solutions. Wheat plants (variety Yuma) were grown from seed in a greenhouse in 50% mineral soil/50% soil-less Metro mix until the first leaf was fully emerged, with 7-10 seedlings per pot. These plants were inoculated with an aqueous spore suspension of Septoria tritici either prior to or after fungicide treatments. After inoculation the plants were kept in 100% relative humidity (one day in a dark dew chamber followed by two to three days in a lighted dew chamber at 20° C.) to permit spores to germinate and infect the leaf. The plants were then transferred to a greenhouse set at 20° C. for disease to develop. When disease symptoms were fully expressed on the l^st leaves of untreated plants, infection levels were assessed on a scale of 0 to 100 percent disease severity. Percent disease control was calculated using the ratio of disease severity on treated plants relative to untreated plants.

[2] = tested on: Puccinia triticina; test: Wheat brown rust (PUCCRT) disease control on wheat seedlings; type: in vivo; details: for pest or weed control at 121.5 g/ha: 121.5 g/H (low volume track spray); for pest or weed control at 100 ppm: 100 ppm (high volume)
Experimental: Technical grades of materials were dissolved in acetone, which were then mixed with nine volumes of water containing 110 ppm Triton X-100. The fungicide solutions were applied onto wheat seedlings using an automated booth sprayer to run-off. All sprayed plants were allowed to air dry prior to further handling. All fungicides were evaluated using the aforementioned method for their activity vs. all target diseases. Wheat leaf blotch and brown rust activity were also evaluated using track spray applications, in which case the fungicides were formulated as EC formulations, containing 0.1% Trycol 5941 in the spray solutions. Wheat plants (variety Yuma) were grown from seed in a greenhouse in 50% mineral soil/50% soil-less Metro mix until the first leaf was fully emerged, with 7-10 seedlings per pot. These plants were inoculated with an aqueous spore suspension of Septoria tritici either prior to or after fungicide treatments. After inoculation the plants were kept in 100% relative humidity (one day in a dark dew chamber followed by two to three days in a lighted dew chamber at 20° C.) to permit spores to germinate and infect the leaf. The plants were then transferred to a greenhouse set at 20° C. for disease to develop. When disease symptoms were fully expressed on the l^st leaves of untreated plants, infection levels were assessed on a scale of 0 to 100 percent disease severity. Percent disease control was calculated using the ratio of disease severity on treated plants relative to untreated plants. Evaluation of Fungicidal Activity: Wheat Brown Rust (Puccinia triticina; Synonym: Puccinia recondite f sp. tritici; Bayer code PUCCRT) Wheat plants (variety Yuma) were grown from seed in a greenhouse in 50% mineral soil/50% soil-less Metro mix until the first leaf was fully emerged, with 7-10 seedlings per pot. These plants were inoculated with an aqueous spore suspension of Puccinia triticina either prior to or after fungicide treatments. After inoculation the plants were kept in a dark dew room at 22° C. with 100% relative humidity overnight to permit spores to germinate and infect the leaf. The plants were then transferred to a greenhouse set at 24° C. for disease to develop. Fungicide formulation, application and disease assessment followed the procedures as described in the Example A.

[3] = 24 h, 1 Day Protectant, wheat, read-out: SEPTTR 1DP disease control rating
[4] = 72 h, 3 Day Curative, wheat, read-out: SEPTTR 3DC disease control rating
[5] = 24 h, 1 Day Protectant, read-out: PUCCRT 1DP disease control rating
[6] = 72 h, 3 Day Curative, read-out: PUCCRT 3DC disease control rating
[7] = 24 h, 1 Day Protectant, 100 ppm (high volume), wheat, read-out: SEPTTR 1DP disease control rating
[8] = 72 h, 3 Day Curative, 100 ppm (high volume), wheat, read-out: SEPTTR 3DC disease control rating

Row | SMILES | melting point [°C] | pest or weed control at 100 ppm [2, 5] [%] | pest or weed control at 100 ppm [2, 6] [%] | pest or weed control at 100 ppm [1, 7] [%] | pest or weed control at 100 ppm [1, 8] [%] | further results
1 | COc1ccnc(C(=O)N[C@H]2CCC[C@H](OCc3ccccc3)[C@@H](CCC(C)C)[C@H](C)OC2=O)c1OC(C)=O [Compound 17] | 58 to 62 |  |  |  |  | pest or weed control at 121.5 g/ha [1, 3]: > 70%; pest or weed control at 121.5 g/ha [1, 4]: > 70%; pest or weed control at 121.5 g/ha [2, 5]: > 70%; pest or weed control at 121.5 g/ha [2, 6]: > 70%
2 | CCCO[C@H]1CCC[C@H](NC(=O)c2nccc(OC)c2O)C(=O)O[C@@H](C)[C@@H]1CCC(C)C [Compound 31, 3-hydroxy-N-((3S,7S,8S,9S)-8-isopentyl-9-methyl-2-oxo-7-propoxyoxonan-3-yl)-4-methoxypicolinamide] | 45 to 49 | > 70 | < 70 |  |  | pest or weed control at 100 ppm ([1]; 24 h, read-out: SEPTTR 1DP disease control rating): < 70%; pest or weed control at 100 ppm ([1]; 72 h, read-out: SEPTTR 3DC disease control rating): < 70%
3 | CCCC[C@H]1[C@H](C)OC(=O)[C@@H](N)CCC[C@@H]1OCCCC(F)(F)F.Cl | 196 to 198 |  |  |  |  | 
4 | CCCO[C@H]1CCC[C@H](NC(=O)c2nccc(OC)c2O)C(=O)O[C@@H](C)[C@@H]1Cc1ccccc1 [Compound 49] | 59 to 64 | > 70 | > 70 | > 70 | > 70 | 
5 | CC(C)CC[C@H]1[C@H](C)OC(=O)[C@@H](NC(=O)OC(C)(C)C)CCC[C@@H]1OCc1ccccc1 [Compound 51] | 97 to 100 |  |  |  |  | 
6 | COc1ccnc(C(=O)N[C@H]2CCC[C@H](Oc3ccc(C)cc3)[C@@H](Cc3ccccc3)[C@H](C)OC2=O)c1O [Compound 60] | 68 to 71 | > 70 | > 70 | > 70 | > 70 | 
7 | COc1ccnc(C(=O)N[C@H]2CCC[C@H](Oc3ccccc3)[C@@H](CCC(C)C)[C@H](C)OC2=O)c1O [Compound 8] | 55 to 60 | > 70 | > 70 | > 70 | > 70 | 
8 | COc1ccnc(C(=O)N[C@H]2CCC[C@H](OCC(C)C)[C@@H](Cc3ccccc3)[C@H](C)OC2=O)c1OCOC(C)=O [Compound 65] |  |  |  |  |  | pest or weed control at 121.5 g/ha [1, 3]: > 70%; pest or weed control at 121.5 g/ha [1, 4]: > 70%; pest or weed control at 121.5 g/ha [2, 5]: > 70%; pest or weed control at 121.5 g/ha [2, 6]: > 70%
9 | COc1ccnc(C(=O)N[C@H]2CCC[C@H](Oc3ccc(C)cc3)[C@@H](Cc3ccc(F)cc3)[C@H](C)OC2=O)c1OC(C)=O [Compound 21] |  |  |  |  |  | pest or weed control at 121.5 g/ha [1, 3]: > 70%; pest or weed control at 121.5 g/ha [1, 4]: < 70%; pest or weed control at 121.5 g/ha [2, 5]: > 70%; pest or weed control at 121.5 g/ha [2, 6]: < 70%
10 | CCCC[C@H]1[C@H](C)OC(=O)[C@@H](N)CCC[C@@H]1OCC1CC1.Cl | 223 to 224 |  |  |  |  | 
11 | CCCC[C@H]1[C@H](C)OC(=O)[C@@H](NC(=O)c2nccc(OC)c2O)CCC[C@@H]1OCc1ccccc1 [Compound 47] |  | > 70 | > 70 | > 70 | < 70 | 
